Measurements: patent US20240317744A1, “Bicyclic Ureas As Kinase Inhibitors” (Incyte Corporation, priority 2023, published 2024)

Assays:
[1] = target: T1, pseudo-kinase domain (JH2, amino-acids 536-812) of human V617F mutant JAK2 (Homo sapiens, UniProt O60674, F794H/V617F/W659A/W777A); experiment: JAK2 LanthaScreen JH2-V617F Binding Assay; settings: JAK2 JH2-V617F 0.26 nM, 50 nM tracer, 1 hour at 25° C.; read-out: JH2 BIND V617F
T1 construct: pseudo-kinase domain (JH2, amino-acids 536-812 with 3 surface mutations W659A, W777A, F794H); His (C); purchased BPS Bioscience 79498; host or cells: baculovirus expression system
T1 sequence (O60674 536-812 V617F/W659A/W777A/F794H): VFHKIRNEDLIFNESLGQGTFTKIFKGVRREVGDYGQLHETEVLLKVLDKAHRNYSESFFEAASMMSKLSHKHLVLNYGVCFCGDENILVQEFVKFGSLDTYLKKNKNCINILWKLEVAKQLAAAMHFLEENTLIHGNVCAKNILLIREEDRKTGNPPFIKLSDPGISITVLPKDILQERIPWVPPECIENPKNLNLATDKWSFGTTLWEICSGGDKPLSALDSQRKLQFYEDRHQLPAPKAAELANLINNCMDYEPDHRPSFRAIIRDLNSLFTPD
How it was run: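 This is a TR-FRET tracer-displacement format with a 1 h, 25 °C incubation. It combined 0.26 nM baculovirus-expressed biotinylated JH2-V617F, 50 nM fluorescent JAK2-JH2 tracer and 0.25 nM streptavidin-Tb cryptate in 50 mM Tris pH 7.5, 10 mM MgCl2, 5 mM DTT. Background came from 2 mM ATP, and IC50 values were from four-parameter dose-response fits.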

[2] = target: T2, pseudo-kinase domain (JH2, amino-acids 536-812) of human Wild Type JAK2 (Homo sapiens, UniProt O60674, F794H/W659A/W777A); experiment: JAK2 LanthaScreen JH2-WT Binding Assay; settings: JAK2 JH2-WT 0.145 nM, 50 nM tracer, 1 hour at 25° C.; read-out: JH2 BIND WT
T2 construct: pseudo-kinase domain (JH2, amino-acids 536-812 with 3 surface mutations W659A, W777A, F794H); His (C); purchased BPS Bioscience 79463; host or cells: baculovirus expression system
T2 sequence (O60674 536-812 W659A/W777A/F794H): as the sequence (O60674 536-812 V617F/W659A/W777A/F794H) above, with F82V counted along it
Protocol: Example B. JAK2 LanthaScreen JH2-WT Binding Assay
JAK2 JH2-WT binding assay utilizes pseudo-kinase domain (JH2, amino-acids 536-812 with 3 surface mutations W659A, W777A, F794H) of human Wild Type JAK2 expressed as C-terminal His-Avi-tagged, biotinylated protein in a baculovirus expression system (BPS Bioscience, Catalog #79463). The assay was conducted in black 384-well polystyrene plates in a final reaction volume of 20 μL. JAK2 JH2-WT (0.145 nM) was incubated with compounds (100 nL serially diluted in DMSO) in the presence of 50 nM Fluorescent JAK2-JH2 Tracer (MedChem Express Catalog #HY-102055) and 0.25 nM Streptavidin-Tb cryptate (Cisbio Part #610SATLB) in assay buffer (50 mM Tris, pH=7.5, 10 mM MgCl2, 0.01% Brij-35, 0.1% BSA, 1 mM EGTA, 5% Glycerol and 5 mM DTT). Non-specific binding was accessed in the presence of 2 mM ATP. After incubation for 1 hour at 25° C., LanthaScreen signals were read on a PHERAstar FS plate reader (BMG LABTECH). Data was analyzed with IDBS XLfit and GraphPad Prism 5.0 software using a four parameter dose response curve to determine IC50 for each compound.

[3] = target: catalytic domain (JH1, amino acids 808-1132) of human JAK2 (Homo sapiens, UniProt O60674); experiment: JAK2 HTRF Enzyme Activity Assay; assay type: biochemical; settings: ATP 30 µM, 60 minutes at 25° C.; read-out: V617F ENZ 30 UM
Chain of catalytic domain (JH1, amino acids 808-1132) of human JAK2 (O60674 808-1132 limits assumed): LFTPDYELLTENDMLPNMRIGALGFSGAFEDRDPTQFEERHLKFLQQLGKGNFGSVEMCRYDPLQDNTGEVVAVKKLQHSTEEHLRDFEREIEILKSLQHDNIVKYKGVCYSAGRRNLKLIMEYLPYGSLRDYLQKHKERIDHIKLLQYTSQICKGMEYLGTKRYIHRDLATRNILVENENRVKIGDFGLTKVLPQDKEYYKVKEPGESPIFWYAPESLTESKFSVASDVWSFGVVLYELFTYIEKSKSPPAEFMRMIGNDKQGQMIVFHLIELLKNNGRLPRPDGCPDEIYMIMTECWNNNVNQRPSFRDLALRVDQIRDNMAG

[4] = target: T3, catalytic domain (JH1, amino acids 826-1132) of human JAK2 (Homo sapiens, UniProt O60674); experiment: JAK2 LanthaScreen JH1 Binding Assay; settings: JAK2 JH1 1.5 nM, 50 nM tracer, 2 hours at 25° C.; read-out: JH1 BIND
T3 construct: catalytic domain (JH1, amino acids 826-1132) of human JAK2; FLAG (N); biotin (biotinylated); purchased Carna Biosciences 08-445-20N; host or cells: baculovirus expression system
T3 sequence (O60674 826-1132): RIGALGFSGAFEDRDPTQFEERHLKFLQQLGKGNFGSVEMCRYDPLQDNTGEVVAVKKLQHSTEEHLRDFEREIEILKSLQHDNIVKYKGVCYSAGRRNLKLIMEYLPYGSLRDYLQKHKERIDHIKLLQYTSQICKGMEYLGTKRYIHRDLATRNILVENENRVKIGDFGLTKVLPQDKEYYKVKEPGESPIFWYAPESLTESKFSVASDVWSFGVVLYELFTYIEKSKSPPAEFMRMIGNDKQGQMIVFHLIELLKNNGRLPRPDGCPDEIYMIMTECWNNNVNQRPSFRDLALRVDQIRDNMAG
Protocol: Example A. JAK2 LanthaScreen JH1 Binding Assay
JAK2 JH1 binding assay utilizes catalytic domain (JH1, amino acids 826-1132) of human JAK2 expressed as N-terminal FLAG-tagged, biotinylated protein in a baculovirus expression system (Carna Biosciences, Product #08-445-20N). The assay was conducted in black 384-well polystyrene plates in a final reaction volume of 20 μL. JAK2 JH1 (1.5 nM) was incubated with compounds (100 nL serially diluted in DMSO) in the presence of 50 nM fluorescent JAK2-JH1 tracer and 0.5 nM Streptavidin-Tb cryptate (Cisbio Part #610SATLB) in assay buffer (50 mM Tris, pH=7.5, 10 mM MgCl2, 0.01% Brij-35, 0.1% BSA, 1 mM EGTA, 5% Glycerol and 5 mM DTT). Non-specific binding was accessed in the presence of 2 mM ATP. After incubation for 2 hours at 25° C., LanthaScreen signals were read on a PHERAstar FS plate reader (BMG LABTECH). Data was analyzed with IDBS XLfit and GraphPad Prism 5.0 software using a four parameter dose response curve to determine IC50 for each compound.

| SMILES | IC50 [1] [nM] | IC50 [2] [nM] | IC50 [3] [nM] | IC50 [4] [nM] |
| --- | --- | --- | --- | --- |
| [2H]C([2H])([2H])n1c(=O)n([C@@H]2CC[C@@H](NC(=O)OC)C2)c2cc(Nc3cc(COC4CCC4)cc(-c4ccc5c(c4)OCCO5)n3)ncc21 [Example 63, Methyl ((1R,3R)-3-(6-((4-(cyclobutoxymethyl)-6-(2,3-dihydrobenzo[b][1,4]dioxin-6-yl)pyridin-2-yl)amino)-3-(methyl-d3)-2-oxo-2,3-dihydro-1H-imidazo[4,5-c]pyridin-1-yl)cyclopentyl)carbamate] | 10 to 100 | ≤ 10 | > 1000 | > 1000 |
| [2H]C([2H])([2H])n1c(=O)n([C@@H]2CC[C@](C)(NC(=O)C3CC3)C2)c2cc(Nc3cc(C(C)(C)O)cc(-c4ncc(Cl)s4)n3)ncc21 [Example 92, N-((1S,3R)-3-(6-((6-(5-Chlorothiazol-2-yl)-4-(2-hydroxypropan-2-yl)pyridin-2-yl)amino)-3-(methyl-d3)-2-oxo-2,3-dihydro-1H-imidazo[4,5-c]pyridin-1-yl)-1-methylcyclopentyl)cyclopropanecarboxamide] | ≤ 10 | ≤ 10 | > 1000 | > 1000 |
| [2H]C([2H])([2H])n1c(=O)n([C@@H]2CC[C@@H](NC(=O)OC)C2)c2cc(Nc3cc(-c4cnn(C)c4)cc(-c4ncc(C(C)(C)O)s4)n3)ncc21 [Example 107, Methyl ((1R,3R)-3-(6-((6-(5-(2-hydroxypropan-2-yl)thiazol-2-yl)-4-(1-methyl-1H-pyrazol-4-yl)pyridin-2-yl)amino)-3-(methyl-d3)-2-oxo-2,3-dihydro-1H-imidazo[4,5-c]pyridin-1-yl)cyclopentyl)carbamate] | ≤ 10 | ≤ 10 | > 1000 | > 1000 |
| [2H]C([2H])([2H])n1c(=O)n([C@@H]2CC[C@@H](NC(=O)OC)C2)c2cc(Nc3cc(C4CCN(C(C)=O)CC4)cc(-c4ncc(C(F)(F)F)s4)n3)ncc21 [Example 105, Methyl ((1R,3R)-3-(6-((4-(1-acetylpiperidin-4-yl)-6-(5-(trifluoromethyl)thiazol-2-yl)pyridin-2-yl)amino)-3-(methyl-d3)-2-oxo-2,3-dihydro-1H-imidazo[4,5-c]pyridin-1-yl)cyclopentyl)carbamate] | ≤ 10 | ≤ 10 | > 1000 | > 1000 |
| [2H]C([2H])([2H])n1c(=O)n([C@@H]2CC[C@@H](NC(=O)OC)C2)c2cc(Nc3cc(C(C)(C)O)cc(-c4ncc(C(C)(C)O)s4)n3)ncc21 [Example 144, Methyl ((1R,3R)-3-(6-((4-(2-hydroxypropan-2-yl)-6-(5-(2-hydroxypropan-2-yl)thiazol-2-yl)pyridin-2-yl)amino)-3-(methyl-d3)-2-oxo-2,3-dihydro-1H-imidazo[4,5-c)pyridin-1-yl)cyclopentyl)carbamate] | ≤ 10 | ≤ 10 | > 1000 | > 1000 |
| [2H]C([2H])([2H])n1c(=O)n([C@]2([2H])CC[C@@H](NC(=O)OC)C2)c2cc(Nc3cc(C(C)(C)O)cc(-c4ncc(C(F)(F)F)s4)n3)ncc21 [Example 156, Methyl ((1R,3R)-3-(6-((4-(2-hydroxypropan-2-yl)-6-(5-(trifluoromethyl)thiazol-2-yl)pyridin-2-yl)amino)-3-(methyl-d3)-2-oxo-2,3-dihydro-1H-imidazo[4,5-c]pyridin-1-yl)cyclopentyl-3-d)carbamate] | ≤ 10 | ≤ 10 | > 1000 | > 1000 |
| COC(=O)N[C@@H]1CC[C@@H](n2c(=O)n(C)c3cnc(Nc4nc(-c5ccncc5)cs4)cc32)C1 [Example 68, Methyl ((1R,3R)-3-(3-methyl-2-oxo-6-((4-(pyridin-4-yl)thiazol-2-yl)amino)-2,3-dihydro-1H-imidazo[4,5-c]pyridin-1-yl)cyclopentyl)carbamate] | 500 to 1000 | 500 to 1000 | > 1000 | > 1000 |
| COC(=O)N[C@@H]1CC[C@@H](n2c(=O)n(C)c3cnc(Nc4cccc(-c5ccc(OC)nc5)n4)cc32)C1 [Example 5, Methyl ((1R,3R)-3-(6-((6′-methoxy-[2,3′-bipyridin]-6-yl)amino)-3-methyl-2-oxo-2,3-dihydro-1H-imidazo[4,5-c]pyridin-1-yl)cyclopentyl)carbamate] | ≤ 10 | ≤ 10 | > 1000 | > 1000 |
| [2H]C([2H])([2H])n1c(=O)n([C@]2([2H])CC[C@@H](NC(=O)OC)C2)c2cc(Nc3cc(-c4cnccc4C(F)(F)F)c4nc(C)c(-c5cnn(C(F)F)c5)n4n3)ncc21 (single isomer, unassigned) [Example 97] | ≤ 10 | ≤ 10 | 500 to 1000 | > 1000 |
| COC(=O)N[C@@H]1CC[C@@H](n2c(=O)n(C)c3cnc(Nc4ccn(-c5ccncc5)n4)cc32)C1 [Example 81, Methyl ((1R,3R)-3-(3-methyl-2-oxo-6-((1-(pyridin-4-yl)-1H-pyrazol-3-yl)amino)-2,3-dihydro-1H-imidazo[4,5-c]pyridin-1-yl)cyclopentyl)carbamate] | 100 to 500 | 100 to 500 | > 1000 | > 1000 |
| COC(=O)Nc1cc(Nc2cc3c(cn2)n(C)c(=O)n3[C@H]2C[C@](C)(NC(=O)OC)C2)cc(-c2cnn(C)c2)c1 [Example 29, Methyl (3-((1-((1r,3r)-3-((methoxycarbonyl)amino)-3-methylcyclobutyl)-3-methyl-2-oxo-2,3-dihydro-1H-imidazo[4,5-c]pyridin-6-yl)amino)-5-(1-methyl-1H-pyrazol-4-yl)phenyl)carbamate] | 100 to 500 | 100 to 500 | > 1000 | > 1000 |
| COC(=O)N[C@@H]1CC[C@@H](n2c(=O)n(C)c3cnc(Nc4cc(NC(=O)OC5CCC5)cc(C5CCOCC5)c4)cc32)C1 [Example 44, Methyl ((1R,3R)-3-(6-((3-((cyclobutoxycarbonyl)amino)-5-(tetrahydro-2H-pyran-4-yl)phenyl)amino)-3-methyl-2-oxo-2,3-dihydro-1H-imidazo[4,5-c]pyridin-1-yl)cyclopentyl)carbamate] | > 1000 | > 1000 | > 1000 | > 1000 |
| [2H]C([2H])([2H])n1c(=O)n([C@H]2CC[C@@](C)(NC(=O)C3CC3)CC2)c2cc(Nc3ccc4nn(C)c(-c5cnn(C(F)(F)F)c5)c4n3)ncc21 (single isomer, unassigned) [Example 91, N-((1s,4s)-1-Methyl-4-(3-(methyl-d3)-6-((2-methyl-3-(1-(trifluoromethyl)-1H-pyrazol-4-yl)-2H-pyrazolo[4,3-b]pyridin-5-yl)amino)-2-oxo-2,3-dihydro-1H-imidazo[4,5-c]pyridin-1-yl)cyclohexyl)cyclopropanecarboxamide] | ≤ 10 | ≤ 10 | 10 to 100 | > 1000 |
